Among the test systems are ACHN; U-251; NCI-H522; OVCAR-4; TK-10; NCI-H23; NCI/ADR-RES; OVCAR-8; A549; SN12C; OVCAR-3; HL-60; MDA-MB-435; RXF 393; SF-539; SF-295; HCT-116; A498; K562; COLO 205.
Assay in all cases: growth of human tumour cells (NCI), 48 h

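Each compound was tested at five concentrations against cells in 96-well plates for 48 hours. Abbreviation: GI50, concentration required for 50% inhibition of growth.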 Activity calls are given as the source filed them. Rule as the data show it: active = GI50 up to about 1.1 µM and inactive = higher.

This is an account of results in ChEMBL document CHEMBL1201862, “PubChem BioAssay data set” (2004).

Take `CN(CC(=O)O)Cc1c[nH]c2ccccc12`: the GI50 in the experiment with ACHN, in the experiment with U-251, in the experiment on NCI-H522, with OVCAR-4, in the experiment on TK-10 and with NCI-H23 was > 100 µM (inactive) in each case. The GI50 in the experiment with NCI/ADR-RES, in the experiment with OVCAR-8, with A549, in the experiment on SN12C, in the experiment on OVCAR-3 and in the experiment with HL-60 was > 100 µM (inactive) each time. For the same compound, the GI50 in the experiment with MDA-MB-435, with RXF 393, in the experiment on SF-539, with SF-295, in the experiment on HCT-116 and in the experiment with A498 was > 100 µM (inactive) throughout. For the same compound, the GI50 with K562 and with COLO 205 was > 100 µM (inactive) each time.
With `CC(=O)c1c(SCCN2CCOCC2)n(-c2ccccc2)c(=S)n(-c2ccccc2)c1=O`, the GI50 in the experiment on ACHN is 14.8 µM (inactive); in the experiment on U-251, 31.2 µM (inactive); with NCI-H522, 21.8 µM (inactive); in the experiment on OVCAR-4, > 46.2 µM (inactive); in the experiment on TK-10, 17.2 µM (inactive); in the experiment on NCI-H23, 27.6 µM (inactive). Further, the GI50 with NCI/ADR-RES is > 57 µM (inactive); in the experiment on OVCAR-8 it was 19.3 µM (inactive); in the experiment with A549, 35.2 µM (inactive); with SN12C, 16.9 µM (inactive); in the experiment with OVCAR-3, 14.8 µM (inactive); with HL-60, 28.5 µM (inactive). Also, the GI50 with MDA-MB-435 is 16 µM (inactive); in the experiment on RXF 393 it was 11.9 µM (inactive); with SF-539 it was 21.6 µM (inactive); in the experiment with SF-295, > 62.7 µM (inactive); in the experiment on HCT-116, 16.1 µM (inactive); in the experiment with A498, 11.5 µM (inactive). Besides, the figures for the GI50 with K562 and in the experiment on COLO 205 were 14.1 µM (inactive) and 21.5 µM (inactive), respectively.
As to `CC(C)c1ccc(/C=C2/C=C(c3ccc4ccccc4c3)OC2=O)cc1`, the GI50 with ACHN is 38.4 µM (inactive); in the experiment with U-251, 39.6 µM (inactive); in the experiment on NCI-H522 it was 10.5 µM (inactive); in the experiment with OVCAR-4, > 100 µM (inactive); in the experiment on TK-10, > 70.3 µM (inactive); with NCI-H23, 38.7 µM (inactive). Besides, the GI50 in the experiment with NCI/ADR-RES was 39.5 µM (inactive); in the experiment on OVCAR-8 it was 45.2 µM (inactive); in the experiment with A549 it was > 89.7 µM (inactive); in the experiment with SN12C, 57.1 µM (inactive); with OVCAR-3 it was 60 µM (inactive); with HL-60, 19.4 µM (inactive). Also, the GI50 in the experiment on MDA-MB-435 is 41.3 µM (inactive); in the experiment on RXF 393, > 81.1 µM (inactive); in the experiment with SF-539, > 100 µM (inactive); in the experiment on SF-295 it was > 94.6 µM (inactive); in the experiment on HCT-116 it was 68.4 µM (inactive); in the experiment with A498 it was > 96.2 µM (inactive). The GI50 in the experiment with K562 was 25.2 µM (inactive); with COLO 205, 27.9 µM (inactive).
On to `C/C(=N/NC(=S)N1CCCCCC1)c1cccc(/C(C)=N\NC(=S)N2CCCCCC2)n1`, for which the GI50 in the experiment with ACHN was 1.48 µM (inactive); in the experiment with U-251 it was 2.32 µM (inactive); in the experiment with NCI-H522, 2.62 µM (inactive); with OVCAR-4 it was 1.01 µM (active); with TK-10 it was 1.77 µM (inactive); in the experiment on NCI-H23, 2.31 µM (inactive). Besides, the GI50 with NCI/ADR-RES was 1.69 µM (inactive); in the experiment on OVCAR-8, 1.55 µM (inactive); in the experiment with A549 it was 2.07 µM (inactive); in the experiment on SN12C, 2.09 µM (inactive); in the experiment on OVCAR-3 it was 1.01 µM (active); in the experiment on HL-60, 1.91 µM (inactive). The GI50 in the experiment with MDA-MB-435 is 1.84 µM (inactive); in the experiment on RXF 393 it was 1.6 µM (inactive); with SF-539 it was 1.56 µM (inactive); in the experiment with SF-295 it was 1.89 µM (inactive); in the experiment with HCT-116, 1.66 µM (inactive); with A498, 1.49 µM (inactive). Also, the results for the GI50 in the experiment on K562 and in the experiment with COLO 205 were 2.45 µM (inactive) and 1.47 µM (inactive), respectively.
Turning to `Nc1cccc(/C=C/CN2CCN(CCOC(c3ccccc3)c3ccccc3)CC2)c1`, the GI50 in the experiment with ACHN is 17.9 µM (inactive); in the experiment on U-251, 14.6 µM (inactive); in the experiment on NCI-H522, 13.9 µM (inactive); in the experiment on OVCAR-4 it was 13.2 µM (inactive); with TK-10 it was 15.8 µM (inactive); in the experiment with NCI-H23, 16.1 µM (inactive). Also, the GI50 with NCI/ADR-RES is 14.3 µM (inactive); in the experiment on OVCAR-8, 16 µM (inactive); with A549 it was 15.1 µM (inactive); in the experiment on SN12C, 16.8 µM (inactive); with OVCAR-3, 15.6 µM (inactive); with HL-60, 5.05 µM (inactive). The GI50 is 14.3 µM (inactive) in the experiment on MDA-MB-435; 12.3 µM (inactive) in the experiment on RXF 393; 16.7 µM (inactive) in the experiment on SF-539; 17.4 µM (inactive) with SF-295; 12.5 µM (inactive) in the experiment on HCT-116; 18 µM (inactive) with A498. Besides, the GI50 with K562 is 3.11 µM (inactive); in the experiment on COLO 205, 6.03 µM (inactive).
As to `C/C(=C/CNc1ncnc2c1ncn2CCC#N)CO`, the GI50 in the experiment on ACHN, in the experiment on NCI-H522, with OVCAR-4, in the experiment with TK-10, in the experiment on NCI-H23 and in the experiment on NCI/ADR-RES was > 100 µM (inactive) throughout. Also, the GI50 in the experiment with OVCAR-8, in the experiment with A549, with SN12C, with OVCAR-3, with HL-60 and with MDA-MB-435 was > 100 µM (inactive) each time. Also, the GI50 in the experiment on RXF 393, in the experiment with SF-539, in the experiment on SF-295, with HCT-116, in the experiment with A498 and in the experiment on K562 was > 100 µM (inactive) each time. The GI50 in the experiment on COLO 205 is > 100 µM (inactive).
Regarding `CC(C)(CO)CNc1nc(N)nc(Cl)c1C=O`, the GI50 in the experiment on ACHN was 48.8 µM (inactive); with U-251 it was 32.8 µM (inactive); with NCI-H522 it was 7.67 µM (inactive); in the experiment on OVCAR-4, 36.1 µM (inactive); with TK-10, 46.9 µM (inactive); in the experiment with NCI-H23, 40.4 µM (inactive). In addition, the GI50 in the experiment on NCI/ADR-RES was 42.2 µM (inactive); in the experiment with OVCAR-8 it was 22.5 µM (inactive); in the experiment with A549 it was 71.1 µM (inactive); with SN12C, 18.9 µM (inactive); in the experiment with OVCAR-3, 25.6 µM (inactive); in the experiment with HL-60 it was 3.9 µM (inactive). Also, the GI50 is 25.9 µM (inactive) in the experiment on MDA-MB-435; 17.6 µM (inactive) with RXF 393; 54.2 µM (inactive) in the experiment on SF-539; 42.4 µM (inactive) in the experiment on SF-295; 20 µM (inactive) with HCT-116; > 100 µM (inactive) in the experiment with A498. Besides, the GI50 with K562 was 5.19 µM (inactive); with COLO 205 it was 25.5 µM (inactive).
For the compound `Cc1cc2c(c(O)c1-c1c(C)cc(O)c3c1C(=O)C=CC3=O)C(=O)C=CC2=O`, the GI50 was 0.388 µM (active) in the experiment on ACHN; 4.03 µM (inactive) in the experiment with U-251; 0.136 µM (active) with NCI-H522; 3 µM (inactive) with OVCAR-4; 0.855 µM (active) in the experiment on TK-10; 3.05 µM (inactive) with NCI-H23. Besides, the GI50 in the experiment with NCI/ADR-RES was 2.49 µM (inactive); with OVCAR-8, 1.95 µM (inactive); in the experiment on A549 it was 17.7 µM (inactive); in the experiment with SN12C it was 2.37 µM (inactive); in the experiment with OVCAR-3, 2.08 µM (inactive); in the experiment with HL-60, < 0.01 µM (active). Besides, the GI50 with MDA-MB-435 is 1.95 µM (inactive); in the experiment on RXF 393, 0.757 µM (active); in the experiment with SF-539, 2.88 µM (inactive); with SF-295, 16.7 µM (inactive); with HCT-116, 1.21 µM (inactive); in the experiment on A498, 6.76 µM (inactive). Further, the GI50 in the experiment with K562 was 0.0337 µM (active); in the experiment with COLO 205, 0.279 µM (active).
In the case of `COC1=C2CC(C)CC(OC)[C@@H](OC(=O)CCN)[C@H](C)/C=C(\C)C(OC(N)=O)C(OC)/C=C\C=C(/C)C(=O)NC(=CC1=O)C2=O` (stereo partly drawn), the GI50 is 0.773 µM (active) in the experiment with ACHN; 2.34 µM (inactive) in the experiment with U-251; 0.255 µM (active) in the experiment with NCI-H522; 3.03 µM (inactive) in the experiment with OVCAR-4; 3.54 µM (inactive) with TK-10; 1.55 µM (inactive) in the experiment with NCI-H23. Further, the GI50 is 16.4 µM (inactive) with NCI/ADR-RES; 1.9 µM (inactive) in the experiment with OVCAR-8; 15.7 µM (inactive) in the experiment on A549; 1.07 µM (active) with SN12C; 0.843 µM (active) in the experiment with OVCAR-3; 0.256 µM (active) with HL-60. The GI50 was 0.802 µM (active) with MDA-MB-435; 1.56 µM (inactive) with RXF 393; 4.4 µM (inactive) in the experiment on SF-539; 16.5 µM (inactive) in the experiment on SF-295; 1.82 µM (inactive) in the experiment on HCT-116; 17.3 µM (inactive) in the experiment with A498. In addition, the GI50 in the experiment on K562 was 0.269 µM (active); with COLO 205, 0.27 µM (active).
Regarding `C=C[C@@]1(C)CC2CC[C@]3(C)C(C)=CC(=O)CC3[C@]2(C)CC1O` (stereo partly drawn), the GI50 in the experiment on ACHN was > 100 µM (inactive); in the experiment with U-251, > 100 µM (inactive); in the experiment with NCI-H522 it was 32.7 µM (inactive); in the experiment on OVCAR-4, > 100 µM (inactive); in the experiment with TK-10 it was > 100 µM (inactive); with NCI-H23 it was > 100 µM (inactive). The GI50 with NCI/ADR-RES was > 100 µM (inactive); in the experiment with A549 it was > 100 µM (inactive); in the experiment on SN12C it was > 100 µM (inactive); with OVCAR-3 it was 67.3 µM (inactive); in the experiment with HL-60, 32.7 µM (inactive); with MDA-MB-435, > 100 µM (inactive). In addition, the GI50 is > 100 µM (inactive) with RXF 393; > 100 µM (inactive) with SF-539; > 100 µM (inactive) in the experiment with SF-295; 91.4 µM (inactive) in the experiment on HCT-116; > 100 µM (inactive) in the experiment with A498; 38 µM (inactive) in the experiment with K562. In addition, the GI50 in the experiment with COLO 205 was 94.4 µM (inactive).
